Measured values taken from PubChem BioAssay (NCI).
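Five compound concentrations were applied to cells in 96-well plates for 48 hours; endpoints were derived by simple linear interpolation of the resulting dose-response curve. Definition used: TGI = concentration required for complete inhibition of growth.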 Where a SMILES comes first, the peptide text is derived from it. [ ]: non-standard residue; d: D form. The star is where a group is joined. Cbz = O=C(OCc1ccccc1)*; Aib = CC(C)(N)C(=O)O; OBn = c1ccc(CO*)cc1

What was measured:
Assay in all cases: inhibition of tumour cell growth, NCI panel, 48 h
TK-10 renal = tested on: TK-10 renal
U251 CNS = tested on: U251 CNS
CAKI-1 renal = tested on: CAKI-1 renal
SK-MEL-28 melanoma = tested on: SK-MEL-28 melanoma
EKVX NSCLC = tested on: EKVX NSCLC
SNB-75 CNS = tested on: SNB-75 CNS
MDA-N = tested on: MDA-N
PC-3 prostate = tested on: PC-3 prostate
NCI-H23 lung = tested on: NCI-H23 lung
NCI/ADR-RES ovarian = tested on: NCI/ADR-RES ovarian
A498 renal = tested on: A498 renal
KM12 colon = tested on: KM12 colon

Row | Compound | TGI (TK-10 renal) [µM] | TGI (U251 CNS) [µM] | TGI (CAKI-1 renal) [µM] | TGI (SK-MEL-28 melanoma) [µM] | TGI (EKVX NSCLC) [µM] | TGI (SNB-75 CNS) [µM] | TGI (MDA-N) [µM] | TGI (PC-3 prostate) [µM] | TGI (NCI-H23 lung) [µM] | TGI (NCI/ADR-RES ovarian) [µM] | TGI (A498 renal) [µM] | TGI (KM12 colon) [µM]
1 | O=[N+]([O-])c1cc2oc(CSc3ccccc3)nc2cc1Cl | > 100 | 66.6 | > 100 | > 100 | > 100 | 67.5 | > 100 | > 100 | 88.6 | 40 | 59.2 | > 100
2 | N#Cc1sc2c(c1OC(=O)c1ccc(C(F)(F)F)cc1)c(=O)n(-c1ccccc1)c(=S)n2-c1ccccc1 | > 100 | 97 | 90.9 | > 100 | 70.9 | 85.7 | > 100 | > 100 | > 100 | > 100 | 90.2 | > 100
3 | CC1(C)C=CC(=O)C(O)C(C)(C)C1=O (stereo not drawn) | > 100 | > 100 | > 100 | > 100 | > 100 | > 100 | > 100 | > 100 | > 100 | > 100 | > 100 | > 100
4 | C[C@@H]1CCC2[C@@H](C)[C@@H](O[C@H]3O[C@@H]4O[C@@]5(C)CCC6[C@H](C)CCC([C@H]3C)[C@]64OO5)O[C@@H]3O[C@@]4(C)CCC1[C@@]23OO4 (stereo partly drawn) | > 25 | > 25 | > 25 | > 25 | > 25 | > 25 | > 25 | > 25 | > 25 | > 25 | > 25 | > 25
5 | C=C(C)CNCCN | > 100 | > 100 | > 100 | > 100 | > 100 | – | > 100 | > 100 | > 100 | > 100 | > 100 | > 100
6 | CC(C)(C)c1ccc2c(c1)C#Cc1cc3c(cc1OCCCO2)C#Cc1cc(C(C)(C)C)ccc1OCCCO3 | > 100 | > 100 | > 100 | > 100 | > 100 | – | > 100 | > 100 | 4.54 | 29.5 | > 100 | > 100
7 | Cn1ncc2c(NCc3ccccc3)ncnc21 | > 100 | > 100 | > 100 | > 100 | > 100 | > 100 | > 100 | – | > 100 | > 100 | > 100 | > 100
8 | CN(C)Cc1cc(C(=O)/C=C/c2ccc([N+](=O)[O-])cc2)cc(CN(C)C)c1O | 45.7 | 14.9 | – | – | 37.3 | 33.3 | 24.7 | 33.9 | 47.5 | 87 | 23.9 | 29.7
9 | COc1cc(Nc2ccc3c(c2)CCC3)nc(OC)n1 | > 100 | > 100 | > 100 | > 100 | > 100 | 53.5 | > 100 | > 100 | > 100 | 65.5 | > 100 | 91.9
10 | Cc1c2c(c(C)n1-c1ccccc1)C(=O)N(CCN1CCN(c3cccc(C(F)(F)F)c3)CC1)C2=O | > 100 | > 100 | > 100 | – | > 100 | > 100 | > 100 | > 100 | > 100 | > 100 | > 100 | > 100
11 | N#CC(c1ccccc1)N(CCOCCOCCN(C(=O)c1ccccc1)C(C#N)c1ccccc1)C(=O)c1ccccc1 (stereo not drawn) | > 100 | > 100 | > 100 | > 100 | > 100 | > 100 | > 100 | > 100 | > 100 | > 100 | > 100 | > 100
12 | O=C(CC(=O)Nc1ccccc1)NNC(Sc1ccccc1)c1cc(N=Nc2ccc(Br)cc2)ccc1O (stereo not drawn) | > 10 | > 10 | > 10 | > 10 | > 10 | > 10 | > 10 | > 10 | > 10 | > 10 | 5.84 | > 10
13 | Cc1cc(OP2(=O)NCc3ncccc3O2)ccc1Cl (stereo not drawn) | – | > 100 | > 100 | > 100 | > 100 | > 100 | > 100 | > 100 | > 100 | > 100 | > 100 | > 100
14 | COc1cc(C=O)ccc1O | > 100 | > 100 | > 100 | > 100 | > 100 | > 100 | > 100 | > 100 | > 100 | > 100 | – | > 100
15 | Cc1ccc(/C=C2/N=C(N/N=C\C(O)C(O)C(O)C(O)CO)NC2=O)cc1 (stereo not drawn) | > 100 | > 100 | > 100 | > 100 | > 100 | > 100 | > 100 | > 100 | > 100 | > 100 | > 100 | > 100
16 | Clc1sc(Cl)c2c1[C@@H](Cl)C[C@@H]2Br | > 100 | > 100 | > 100 | > 100 | > 100 | > 100 | > 100 | > 100 | > 100 | – | – | > 100
17 | COc1cc2c(cc1OCCCN1C(=O)c3cccc4cccc(c34)C1=O)N=C[C@@H]1CCCN1C2=O | > 100 | > 100 | > 58.1 | > 100 | > 100 | – | > 100 | > 100 | > 100 | > 100 | > 100 | > 49.8
18 | CC(NC(=O)C(C)(C)NC(=O)C(CC(=O)OCc1ccccc1)NC(=O)OCc1ccccc1)C(N)=O (stereo not drawn) (Cbz-Asp(OBn)-[Aib]-Ala-NH2; configuration not given here) | > 100 | > 100 | > 100 | > 100 | > 100 | – | > 100 | > 100 | > 100 | > 100 | – | > 100
19 | O=C1/C(=C/c2ccc(Cl)cc2)CCCc2ccccc21 | 58.7 | 27.4 | > 100 | 30.7 | 35.3 | > 100 | 33.3 | 53.1 | 60.5 | 32.6 | – | 28.5
20 | COC1OC2COC(c3ccccc3)OC2C(O)C1OC(=S)c1ccccc1 (stereo not drawn) | > 100 | 12.9 | 80.4 | > 100 | 51.7 | – | 80.9 | 57.2 | > 100 | > 100 | > 100 | –

Row | Compound | TGI (TK-10 renal) [µM] | TGI (U251 CNS) [µM] | TGI (CAKI-1 renal) [µM] | TGI (SK-MEL-28 melanoma) [µM] | TGI (EKVX NSCLC) [µM] | TGI (SNB-75 CNS) [µM] | TGI (MDA-N) [µM] | TGI (PC-3 prostate) [µM] | TGI (NCI-H23 lung) [µM] | TGI (NCI/ADR-RES ovarian) [µM] | TGI (A498 renal) [µM] | TGI (KM12 colon) [µM]
21 | OCCCc1ccc2c(c1)[C@H](CO)[C@@H](c1ccc(O)cc1)O2 | > 100 | > 100 | – | > 100 | > 100 | > 100 | > 100 | > 100 | > 100 | > 100 | > 100 | > 100
22 | CO/N=C(/C(=O)OC)c1ccccc1COc1ccccc1C(F)(F)F | > 100 | > 100 | > 100 | > 100 | 62.9 | – | > 100 | > 100 | > 100 | > 100 | > 100 | > 100
23 | CC1=C(C#N)c2nc3ccccc3n2C(=O)C1(C)CCO (stereo not drawn) | > 100 | > 100 | > 100 | > 100 | > 100 | > 100 | > 100 | > 100 | > 100 | > 100 | > 100 | –
24 | C[C@@H]1CC[C@H]2[C@H]1[C@H]1[C@@H](CC[C@]2(C)N=C=S)C1(C)C | > 100 | 30.5 | 92.4 | 49.7 | – | > 100 | 23.4 | > 100 | 94.3 | 43.9 | – | 40
25 | O=c1onc2n1-c1cc(Cl)ccc1C(=S)N1CSCC21 (stereo not drawn) | > 100 | > 100 | > 100 | > 100 | > 100 | > 100 | > 100 | > 100 | – | > 100 | > 100 | > 100
26 | CC(C)(C)N=C(N)NC#N | > 100 | > 100 | > 100 | > 100 | > 100 | > 100 | > 100 | > 100 | > 100 | > 100 | – | –
27 | O=C(CNc1ccc(Cl)cc1Cl)Nn1c(-c2ccccc2)nc2ccccc2c1=O | 36.1 | – | – | 43.7 | 35.5 | 30.5 | 34.5 | 29.9 | 29.8 | 52.9 | – | –
28 | Nc1ncc2c(n1)-c1ccccc1OC2N1CCCC1 (stereo not drawn) | > 100 | > 100 | > 100 | > 100 | > 100 | > 100 | > 100 | > 100 | > 100 | > 100 | – | > 100
29 | CCOC(=O)c1c2cccccc-2nc1Nc1cccc2c(C)ccnc12 | > 10 | > 10 | > 10 | > 10 | > 10 | – | > 10 | > 10 | > 10 | > 10 | > 10 | > 10
30 | CN1CCN(Cc2cc3c(nn2)-c2ccccc2C3=O)CC1 | > 100 | > 100 | > 100 | – | > 100 | > 100 | 52.3 | > 100 | > 100 | > 100 | – | > 100
31 | COc1cccc2c1OC(c1cccc3ccccc13)C([N+](=O)[O-])=C2 (stereo not drawn) | 5.77 | 2.9 | 5.02 | 2.87 | 10.5 | 2.65 | 10.3 | 2.37 | 4.29 | 7.29 | – | 3.05
32 | C=C(C)[C@H]1C2=CC(C(=O)OC)=C(C[C@H](C(=C)C)[C@@H](O)[C@@H](O)C3=C[C@H]1OC3=O)O2 | > 100 | > 100 | > 100 | – | > 100 | > 100 | > 100 | – | > 100 | > 100 | > 100 | > 100
33 | Cc1nc2ccccc2c(-n2cccn2)c1CCn1cccn1 | > 100 | > 100 | > 100 | > 100 | > 100 | – | > 100 | > 100 | > 100 | > 100 | > 100 | > 100
34 | [N-]=[N+]=CC(=O)OC(CCl)CCl | > 100 | > 100 | – | > 100 | > 100 | – | > 100 | > 100 | > 100 | – | > 100 | > 100
35 | O=C1N(Cc2ccccc2)C2CSCC2N1Cc1ccccc1 (stereo not drawn) | 85.9 | > 100 | > 100 | > 100 | 79.3 | > 100 | 80 | > 100 | 85 | 69.4 | – | > 100
36 | O=C1C(=Nc2ccc(Nc3ccccc3)cc2)Oc2ccccc21 | 12.2 | 4.27 | 7.58 | 19.3 | 27.7 | 8.52 | 7.16 | 8.58 | 3.93 | – | 21 | 4.03
37 | COc1ccc(/C=N/NC(=O)c2ccc(O)c(CN(C)C)c2)cc1 | > 100 | > 100 | > 100 | > 100 | > 100 | – | > 100 | > 100 | > 100 | > 100 | 37.4 | > 100
38 | CC12c3c4ccc(C=O)c3Oc3ccc(C=O)c(c31)Oc1ccc(C=O)c(c12)O4 | – | > 25 | > 25 | > 25 | > 25 | > 25 | > 25 | > 25 | > 25 | > 25 | > 25 | > 25
39 | O=C(OCC(Cl)(Cl)Cl)N1CC[C@H](C2CCCCC2)C1 | 37.9 | 13.6 | 88.9 | – | 32.4 | 35.9 | > 100 | 48.7 | 33.2 | 28.5 | – | 31.7
